Patent publication US20230111212A1, “MUSCLE TARGETING COMPLEXES AND USES THEREOF FOR TREATING DYSTROPHINOPATHIES” (Dyne Therapeutics, Inc., priority 2020, published 2023)

How the values were obtained:
[1] = test system: mdx mice (DMD mouse model); test: open field chamber experiment with hind limb fatigue challenge; assay type: in vivo; settings: single i.v. dose 30 mg/kg, two weeks after injection
Procedure: (§1) Each experimental condition was replicated in five mdx mice. Five wild-type mice (healthy mice) were also dosed with vehicle control (saline).
Two weeks after injection, the functional activity of all treated mice was determined using an open field chamber experiment. The experiment involved three consecutive stages: (1) a 10-minute period during which each mouse was placed into an open field chamber; (2) a 10-minute period during which each mouse was subjected to a hind limb fatigue challenge; and (3) a 10-minute period during which each mouse was placed into an open field chamber. The total horizontal distances traveled during stages (1) and (3) were collected. The percent change in the total distance traveled between the first and second tests.

[2] = test system: mdx mice (DMD mouse model); test: cage running wheel test; assay type: in vivo; settings: single i.v. dose 30 mg/kg, four weeks after injection, 24-hour period
Procedure: as §1
Four weeks after injection, the activity of all treated mice was determined using a cage running wheel test. Each mouse was individually placed into cages with a running wheel for a 24-hour period. The 24-hour period involved five hours of light on followed by thirteen hours of darkness, and ending with six hours of light. The total distance traveled (in meters, m) by each mouse on the running wheel was continuously collected throughout the 24-hour period and subsequently binned into discrete one-hour increments.

[3] = test system: creatine kinase; test: creatine kinase activity levels in mdx mice; assay type: in vivo, mouse; settings: single i.v. dose 30 mg/kg, two and four weeks after injection
Procedure: as §1
All mice in this Example were further tested for creatine kinase activity levels two weeks and four weeks after injection.

## MDX-ASO: naked exon 23 skipping PMO ASO; GGCCAAACCUCGGCUUACCUGAAAU (SEQ ID NO: 277) (PMO chemistry, chemistry not fully specified)
[1]
  average decrease of total horizontal distance traveled during stage (3) relative to stage (1): about 85%
  functional performance in open field chamber experiment: same compromised functional performance as those treated with vehicle
[2]
  distance traveled on running wheel during the dark period: considerably shorter distances
[3]
  creatine kinase activity levels: no significant benefit
